From PubChem BioAssay (NCI)
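1) Cells in 96-well plates. 2) Compound, 48 h, 5 concentrations. 3) Linear interpolation between surrounding doses. 4) Unreached endpoint = highest concentration. TGI: total growth inhibition.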

Assays:
Test in all cases: NCI-60 cell line screen, 48 h
786-0 renal = system: 786-0 renal
A498 renal = system: A498 renal
A549 NSCLC = system: A549 NSCLC
ACHN renal = system: ACHN renal
CAKI-1 renal = system: CAKI-1 renal
CCRF-CEM leukemia = system: CCRF-CEM leukemia
COLO 205 colon = system: COLO 205 colon
DU-145 prostate = system: DU-145 prostate
EKVX NSCLC = system: EKVX NSCLC
HCC-2998 colon = system: HCC-2998 colon
HCT-116 colon = system: HCT-116 colon
HCT-15 colon = system: HCT-15 colon
HOP-92 NSCLC = system: HOP-92 NSCLC
HS 578T breast = system: HS 578T breast
HT29 colon = system: HT29 colon
IGROV1 ovarian = system: IGROV1 ovarian
K-562 leukemia = system: K-562 leukemia
KM12 colon = system: KM12 colon
LOX IMVI melanoma = system: LOX IMVI melanoma
M14 melanoma = system: M14 melanoma
MALME-3M melanoma = system: MALME-3M melanoma
MCF7 breast = system: MCF7 breast
MDA-MB-231 breast = system: MDA-MB-231 breast
MDA-MB-435 = system: MDA-MB-435
MDA-N = system: MDA-N
MOLT-4 leukemia = system: MOLT-4 leukemia
NCI-H226 lung = system: NCI-H226 lung
NCI-H23 lung = system: NCI-H23 lung
NCI-H522 lung = system: NCI-H522 lung
NCI/ADR-RES ovarian = system: NCI/ADR-RES ovarian
OVCAR-5 ovarian = system: OVCAR-5 ovarian
OVCAR-8 ovarian = system: OVCAR-8 ovarian
PC-3 prostate = system: PC-3 prostate
RPMI-8226 leukemia = system: RPMI-8226 leukemia
RXF 393 renal = system: RXF 393 renal
SF-268 CNS = system: SF-268 CNS
SF-295 CNS = system: SF-295 CNS
SF-539 CNS = system: SF-539 CNS
SK-MEL-2 melanoma = system: SK-MEL-2 melanoma
SK-MEL-5 melanoma = system: SK-MEL-5 melanoma
SK-OV-3 ovarian = system: SK-OV-3 ovarian
SN12C renal = system: SN12C renal
SNB-19 CNS = system: SNB-19 CNS
SNB-75 CNS = system: SNB-75 CNS
SW-620 colon = system: SW-620 colon
T-47D breast = system: T-47D breast
TK-10 renal = system: TK-10 renal
U251 CNS = system: U251 CNS
UACC-257 melanoma = system: UACC-257 melanoma
UACC-62 melanoma = system: UACC-62 melanoma
UO-31 renal = system: UO-31 renal
HL-60(TB) leukemia = system: HL-60(TB) leukemia
HOP-62 NSCLC = system: HOP-62 NSCLC
NCI-H460 lung = system: NCI-H460 lung
OVCAR-3 ovarian = system: OVCAR-3 ovarian
OVCAR-4 ovarian = system: OVCAR-4 ovarian
SK-MEL-28 melanoma = system: SK-MEL-28 melanoma
SR leukemia = system: SR leukemia

In the case of `CCOC(=O)C1C(c2ccco2)C2(C#N)C(=N)OC1(C)C2(C#N)C#N` (stereo unspecified), the TGI (786-0 renal) is reported as > 100 µM, the TGI (A498 renal) is reported as > 100 µM and the TGI (A549 NSCLC) is reported as > 100 µM. The TGI (ACHN renal) was > 100 µM, the TGI (CAKI-1 renal) was > 100 µM and the TGI (CCRF-CEM leukemia) was > 100 µM. For the same compound, the TGI (COLO 205 colon) was > 100 µM, the TGI (DU-145 prostate) was > 100 µM and the TGI (EKVX NSCLC) was > 100 µM. For the same compound, the TGI (HCC-2998 colon) was > 100 µM, the TGI (HCT-116 colon) was > 100 µM and the TGI (HCT-15 colon) was > 100 µM. The TGI (HOP-92 NSCLC) was > 100 µM, the TGI (HS 578T breast) was > 100 µM and the TGI (HT29 colon) was > 100 µM. For the same compound, the TGI (IGROV1 ovarian) was > 100 µM, the TGI (K-562 leukemia) was > 100 µM and the TGI (KM12 colon) was > 100 µM. For the same compound, the TGI (LOX IMVI melanoma) was > 100 µM, the TGI (M14 melanoma) was > 100 µM and the TGI (MALME-3M melanoma) was > 100 µM. For the same compound, the TGI (MCF7 breast) was > 100 µM, the TGI (MDA-MB-231 breast) was > 100 µM and the TGI (MDA-MB-435) was > 100 µM. For the same compound, the TGI (MDA-N) was > 100 µM, the TGI (MOLT-4 leukemia) was > 100 µM and the TGI (NCI-H226 lung) was > 100 µM. For the same compound, the TGI (NCI-H23 lung) was > 100 µM, the TGI (NCI-H522 lung) was > 100 µM and the TGI (NCI/ADR-RES ovarian) was > 100 µM. The TGI (OVCAR-5 ovarian) was > 100 µM, the TGI (OVCAR-8 ovarian) was > 100 µM and the TGI (PC-3 prostate) was > 100 µM. The TGI (RPMI-8226 leukemia) was > 100 µM, the TGI (RXF 393 renal) was > 100 µM and the TGI (SF-268 CNS) was > 100 µM. The TGI (SF-295 CNS) was > 100 µM, the TGI (SF-539 CNS) was > 100 µM and the TGI (SK-MEL-2 melanoma) was > 100 µM. The TGI (SK-MEL-5 melanoma) was > 100 µM, the TGI (SK-OV-3 ovarian) was > 100 µM and the TGI (SN12C renal) was > 100 µM. For the same compound, the TGI (SNB-19 CNS) was > 100 µM, the TGI (SNB-75 CNS) was > 100 µM and the TGI (SW-620 colon) was > 100 µM. The TGI (T-47D breast) was > 100 µM, the TGI (TK-10 renal) was > 100 µM and the TGI (U251 CNS) was > 100 µM. The TGI (UACC-257 melanoma) was > 100 µM, the TGI (UACC-62 melanoma) was > 100 µM and the TGI (UO-31 renal) was > 100 µM.

For `CCOc1cc(/C=N\O)cc(/C=N/O)c1O`, the TGI (786-0 renal) was > 100 µM, the TGI (A498 renal) was 51.1 µM and the TGI (A549 NSCLC) was > 100 µM. The TGI (ACHN renal) was 59.4 µM, the TGI (CAKI-1 renal) was 61.1 µM and the TGI (CCRF-CEM leukemia) was > 100 µM. For the same compound, the TGI (COLO 205 colon) was 50.1 µM, the TGI (DU-145 prostate) was > 100 µM and the TGI (EKVX NSCLC) was > 100 µM. For the same compound, the TGI (HCC-2998 colon) was > 100 µM, the TGI (HCT-116 colon) was > 100 µM and the TGI (HCT-15 colon) was 92.6 µM. For the same compound, the TGI (HL-60(TB) leukemia) was > 100 µM, the TGI (HOP-62 NSCLC) was > 100 µM and the TGI (HOP-92 NSCLC) was 60.4 µM. For the same compound, the TGI (HS 578T breast) was > 100 µM, the TGI (HT29 colon) was > 100 µM and the TGI (K-562 leukemia) was > 100 µM. For the same compound, the TGI (KM12 colon) was > 100 µM, the TGI (LOX IMVI melanoma) was 71.9 µM and the TGI (M14 melanoma) was > 100 µM. The TGI (MALME-3M melanoma) was > 100 µM, the TGI (MCF7 breast) was 25 µM and the TGI (MDA-MB-231 breast) was > 100 µM. The TGI (MDA-MB-435) was > 100 µM, the TGI (MDA-N) was > 100 µM and the TGI (MOLT-4 leukemia) was 99 µM. For the same compound, the TGI (NCI-H226 lung) was > 100 µM, the TGI (NCI-H23 lung) was > 100 µM and the TGI (NCI-H460 lung) was > 100 µM. For the same compound, the TGI (NCI/ADR-RES ovarian) was > 100 µM, the TGI (OVCAR-3 ovarian) was > 100 µM and the TGI (OVCAR-4 ovarian) was > 100 µM. The TGI (OVCAR-5 ovarian) was > 100 µM, the TGI (OVCAR-8 ovarian) was 66.6 µM and the TGI (PC-3 prostate) was > 100 µM. For the same compound, the TGI (RPMI-8226 leukemia) was > 100 µM, the TGI (RXF 393 renal) was 30.5 µM and the TGI (SF-268 CNS) was 64.1 µM. For the same compound, the TGI (SF-295 CNS) was > 100 µM, the TGI (SF-539 CNS) was 61.1 µM and the TGI (SK-MEL-2 melanoma) was 41 µM. For the same compound, the TGI (SK-MEL-28 melanoma) was > 100 µM, the TGI (SK-MEL-5 melanoma) was 39.5 µM and the TGI (SK-OV-3 ovarian) was > 100 µM. For the same compound, the TGI (SN12C renal) was > 100 µM, the TGI (SNB-19 CNS) was > 100 µM and the TGI (SNB-75 CNS) was 57.6 µM. For the same compound, the TGI (SR leukemia) was > 100 µM, the TGI (SW-620 colon) was > 100 µM and the TGI (T-47D breast) was 93.8 µM. For the same compound, the TGI (TK-10 renal) was > 100 µM, the TGI (U251 CNS) was 84.3 µM and the TGI (UACC-257 melanoma) was > 100 µM. The TGI (UACC-62 melanoma) was > 100 µM.
